This passage reports inhibition and CC50 results from patent EP0429987B1, “5,11-Dihydro-6H-dipyrido[3,2-b:2',3'-e] [1,4]diazepines and their use in the prevention or treatment of HIV infection” (priority 1989, dated 1991).

In data set [1] the test system is HTLV-IIIB strain of HIV-1. The experiment in a line: Human T-Cell Culture Assay: inhibition of syncytia formation in c8166 cells. The following applies: Human immunodeficiency virus 1, IIIB, 96 h, four days after virus challenge. The data set is classed as cell-based. Here is the method:
In order to confirm that compounds which are active in the RT Assay also have the ability to inhibit HIV replication in a living system, compounds according to the invention were also tested in the human T-Cell Culture Assay described below.
Assay Theory: Formation of syncytia is a feature of in vitro cultures of CD4+ T-cells infected with HIV-1. In this assay, T-cells are treated with a putative replication inhibiting compound and then infected with HIV-1. After incubation, the culture is checked for the formation of syncytia. The absence or reduction in the number of syncytia is used as a measure of the test compound's ability to inhibit HIV replication.
Assay Method: The target cells, designated c8166, are a sub-clone of human lymphoma cells of T-cell origin and are established at an initial density of 5x10^4 per 100 ul in RPMI 1640 (+ 10% fetal bovine serum) culture medium in 96 well flat bottom plates. A selected amount of test compound, dissolved in DMSO, is included. After 24 hours, 50-100 TCID50's (the dose that results in induced effect in 50% of test cultures) of the HTLV-IIIB strain of HIV-1 (2) are inoculated into each culture. Control cultures receive compound or virus only. Four days after virus challenge, cultures are visually examined for the frequency and distribution of virus-induced giant cell syncytia. The percent inhibition by the test compound is determined by comparison with control values. Confirmation of the presence or absence of virus replication is accomplished by harvesting the cell free culture fluids from all experimental groups to determine the presence or absence of infectious progeny through the induction of syncytia formation in secondary human T-cell cultures after 3 days.

The target in the next data set is T1, HIV-1 RT (Human immunodeficiency virus type 1 group M subtype B, UniProt P03367).
T1 construct: Reverse transcriptase enzyme from the LAV strain of Human Immunodeficiency Virus (HIV-1) (1) was isolated; made in house; host or cells: E. coli JM109, clone pBRTprtl+ in vector pIBI21 (lac promoter, IPTG induction)
The experiment in a line: Reverse Transcriptase (RT) Assay: inhibition of RNA-dependent DNA polymerase activity. In kind it is biochemical. Particulars: @ 1.25µM (footnote +). The source says: Utilizing the Reverse Transcriptase (RT) Assay described below, compounds can be tested for their ability to inhibit the RNA-dependent DNA polymerase activity of HIV-1 RT.
Among the enzymes for which Human Immunodeficiency Virus (HIV-1) encodes is a reverse transcriptase (1), so-named because it transcribes a DNA copy from an RNA template. This activity can be quantitatively measured in a cell-free enzyme assay, which has been previously described (2), and is based upon the observation that reverse transcriptase is able to use a synthetic template [poly r(C) primed with oligo d(G)] to transcribe a radio-labelled, acid-precipitable DNA strand utilizing ^3H-dGTP as a substrate.
Reverse transcriptase enzyme from the LAV strain of Human Immunodeficiency Virus (HIV-1) (1) was isolated from the bacterial strain JM109 (3) expressing the DNA clone pBRTprtl+ (2) which is under the control of the lac promotor in the expression vector pIBI21 (4). An overnight culture grown in 2XYT medium (37°C, 225 rpm) (5) supplemented with 100 µg/ml ampicillin for positive selection is inoculated at a 1:40 dilution into M9 medium supplemented with 10µg/ml thiamine, 0.5% casamino acids, and 50 µg/ml ampicillin (5). The culture is incubated (37°C, 225 rpm) until it reaches an OD540 of 0.3-0.4. At that time the repressor inhibitor IPTG (isopropyl β-D-thiogalactopyranoside) is added to 0.5mM, and the mixture is incubated for 2 additional hours. Bacteria are pelleted, resuspended in a 50mM Tris, 0.6mM EDTA, 0.375M NaCl buffer and digested by the addition of lysozyme (1mg/ml) for 30 minutes on ice. The cells are lysed by the addition of 0.2% NP-40 and brought to 1M NaCl.
After removal of the insoluble debris by centrifugation, the protein is precipitated by the addition of 3 volumes of saturated aqueous ammonium sulfate. The enzyme is pelleted, resuspended in RT buffer (50mM Tris pH 7.5, 1mM EDTA, 5mM DTT, 0.1% NP-40, 0.1M NaCl, and 50% glycerol), and stored at -70°C for further use.
The 2X concentrated stock reaction mixture is aliquoted and stored at -20°C. […] This enzyme assay has been adapted to a 96 well microtiter plate system, and has been previously described (6). Tris buffer (50 mM, pH 7.4), vehicle (solvent diluted to match the compound dilution), or compounds in vehicle are dispensed into 96-well microtiter plates (10µl/well; 3 wells/ compound). The HIV-1 RT enzyme is thawed, diluted in 50mM Tris pH 7.4 so that fifteen µl of diluted enzyme contain 0.001 Unit (one unit is that amount of enzyme to transform 1 micromole of substrate per minute at 25°C), and fifteen µl are dispensed per well. Twenty µl of 0.12-0.5M EDTA are added to the first three wells of the microtiter plate. EDTA chelates the Mg^++ present and prevents reverse transcription. This group serves as background polymerization which is subtracted from all other groups. Twenty-five µl of the 2X reaction mixture are added to all wells and the assay is allowed to incubate at room temperature for 60 minutes. The assay is terminated by precipitating the DNA in each well with 50µl of 10% trichloracetic acid (TCA) (10% w/v) in sodium pyrophosphate (1% w/v). The microtiter plate is incubated for 15 minutes at 4°C and the precipitate is fixed onto #30 glass fiber paper (Schleicher & Schuell) using a Skatron semi-automatic harvester. The filters are then washed with additional TCA (5%) containing sodium pyrophosphate (1%), rinsed with aqueous ethanol (70%), dried, and transferred to scintillation vials (6). Each vial receives 2 mls of scintillation cocktail and is counted in a Beckman beta counter.
The calculation for percent inhibition is as follows: %inhibition =(CPM Mean Test Value - CPM Mean Control Value X100)/(CPM Mean Control Value) [formula]

Data set [2] can be described thus: MTT Assay for Cellular Cytotoxicity. Particulars: human, h9 cells. Here is the method: In order to roughly assess the cytotoxicity of the compounds provided by the invention, several such compounds were tested in the MTT Cellular Cytotoxicity Assay described below.
The MTT [3-(4,5-dimethylthiazol-2-yl)-2,5 diphenyl tetrazolium bromide) assay is based on cleavage of tetrazolium bromide by metabolically active cells, resulting in a highly quantitative blue color. This assay has been previously described (1) but has been optimized for the purposes of the testing reported herein.
The H9 cell line (2), an established human lymphoma suspension cell line grown in RPMI 1640 supplemented with 10% fetal bovine serum, is used as the target cell line in the assay. Cells (100 µl) are plated in microtest plate wells at a concentration of 10^5 cells per ml in the presence of varying concentrations of inhibitor. The cells are incubated at 37°C in a humidified CO2 incubator. Five days later, 20µl of MTT (5mg/ml in RPMI 1640, sonicated, 0.2 micron filtered, and stored at 4°C) is added to each well. After 4 hours additional incubation at 37°C, 60µl of Triton-X is added to each well and thoroughly mixed to aid the solubilization of the crystals. Absolute ethanol (5µl) is added to each well and the resulting mixture is incubated for 30 minutes at 60°C and immediately read on a plate reader (Dynatech) at a wavelength of 570nm.
Data from this assay are used to generate a nonlinear regression analysis which yields an EC50.

As for `CCN1c2ncccc2C(=O)Nc2c(C)cc(OC)nc21` [Example 7, 5,11-Dihydro-11-ethyl-2-methoxy-4-methyl-6H-dipyrido[3,2-b:2',3'-e][1,4]diazepin-6-one], the inhibition – broadly, the relative decrease from the control value, in per cent – at 3 µg/mL in data set [1] was 100%. Further, the inhibition at 1.25 µM against HIV-1 RT was determined as 96%. Also, in data set [2], the CC50 (usually the concentration that lowers cell viability or growth by half) at 120 h was determined as 350 µM.
